Measurements as given in ChEMBL document CHEMBL1909046, “DrugMatrix in vitro pharmacology data”.
Where a SMILES comes first, the peptide text is derived from it. Bridges are numbered along the chain shown (N, C = ends). [ ]: non-standard residue; d: D form. The star is where a group is joined. Threoninol(2S,3R) = C[C@@H](O)[C@H](CO)N*

Legend:
[1] = DRUGMATRIX: Tumor Necrosis Factor (TNF), Non-Selective radioligand binding (ligand: [125I] TNF-alpha); format: cell membranes, Membrane; conditions: u-937; Not Active = under 50% inhibition at 10 µM
[2] = target: Platelet-activating factor receptor (Homo sapiens, UniProt P25105); format: tissue-based; further: in other assays of this panel Not Active means under 50% inhibition at 10 µM
[3] = target: Sodium-dependent dopamine transporter (Homo sapiens, UniProt Q01959); assay: DRUGMATRIX: Dopamine Transporter radioligand binding (ligand: [125I] RTI-55); format: cell membranes, CHO-K1, Membrane; conditions: cho-k1; Not Active = under 50% inhibition at 10 µM
Substance-K receptor = target: T1, Substance-K receptor (Homo sapiens, UniProt P21452); format: cell membranes, CHO, Membrane; conditions: cho; further: in other assays of this panel Not Active means under 50% inhibition at 10 µM
T1 sequence (P21452 whole entry): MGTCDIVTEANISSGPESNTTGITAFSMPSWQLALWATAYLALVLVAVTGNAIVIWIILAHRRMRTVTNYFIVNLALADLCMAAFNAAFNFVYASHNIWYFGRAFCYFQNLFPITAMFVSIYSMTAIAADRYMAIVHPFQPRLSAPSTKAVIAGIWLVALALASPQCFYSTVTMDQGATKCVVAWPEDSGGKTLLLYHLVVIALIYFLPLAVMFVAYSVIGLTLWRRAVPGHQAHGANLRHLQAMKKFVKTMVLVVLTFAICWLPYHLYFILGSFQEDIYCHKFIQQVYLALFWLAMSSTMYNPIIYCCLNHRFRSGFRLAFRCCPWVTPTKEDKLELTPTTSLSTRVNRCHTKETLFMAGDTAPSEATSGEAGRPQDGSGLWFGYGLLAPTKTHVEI

[4] = target: Epidermal growth factor receptor (Homo sapiens, UniProt P00533); assay: DRUGMATRIX: Protein Tyrosine Kinase, EGF Receptor enzyme inhibition (substrate: Poly(Glu:Tyr)); format: cell-based, Insect cells; conditions: insect cells; Not Active = under 50% inhibition at 10 µM
[5] = DRUGMATRIX: Platelet-Derived Growth Factor (PDGF) radioligand binding (ligand: [125I] PDGF); format: cell-based; conditions: nih3t3; Not Active = under 50% inhibition at 10 µM
Melanocortin receptor 3 = Melanocortin receptor 3 (Homo sapiens, UniProt P41968); format: cell membranes, Membrane; conditions: hek293; further: in other assays of this panel Not Active means under 50% inhibition at 10 µM
Sequence of Melanocortin receptor 3 (P41968 whole entry): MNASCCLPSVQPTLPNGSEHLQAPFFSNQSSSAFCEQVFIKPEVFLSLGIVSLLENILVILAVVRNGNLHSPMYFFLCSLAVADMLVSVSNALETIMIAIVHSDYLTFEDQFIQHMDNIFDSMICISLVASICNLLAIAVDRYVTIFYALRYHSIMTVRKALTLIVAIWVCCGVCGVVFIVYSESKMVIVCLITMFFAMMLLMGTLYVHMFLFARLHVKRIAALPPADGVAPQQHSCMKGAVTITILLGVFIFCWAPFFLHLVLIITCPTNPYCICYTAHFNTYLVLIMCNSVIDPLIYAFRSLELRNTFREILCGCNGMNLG

Sequence of Sodium-dependent dopamine transporter (Q01959 whole entry): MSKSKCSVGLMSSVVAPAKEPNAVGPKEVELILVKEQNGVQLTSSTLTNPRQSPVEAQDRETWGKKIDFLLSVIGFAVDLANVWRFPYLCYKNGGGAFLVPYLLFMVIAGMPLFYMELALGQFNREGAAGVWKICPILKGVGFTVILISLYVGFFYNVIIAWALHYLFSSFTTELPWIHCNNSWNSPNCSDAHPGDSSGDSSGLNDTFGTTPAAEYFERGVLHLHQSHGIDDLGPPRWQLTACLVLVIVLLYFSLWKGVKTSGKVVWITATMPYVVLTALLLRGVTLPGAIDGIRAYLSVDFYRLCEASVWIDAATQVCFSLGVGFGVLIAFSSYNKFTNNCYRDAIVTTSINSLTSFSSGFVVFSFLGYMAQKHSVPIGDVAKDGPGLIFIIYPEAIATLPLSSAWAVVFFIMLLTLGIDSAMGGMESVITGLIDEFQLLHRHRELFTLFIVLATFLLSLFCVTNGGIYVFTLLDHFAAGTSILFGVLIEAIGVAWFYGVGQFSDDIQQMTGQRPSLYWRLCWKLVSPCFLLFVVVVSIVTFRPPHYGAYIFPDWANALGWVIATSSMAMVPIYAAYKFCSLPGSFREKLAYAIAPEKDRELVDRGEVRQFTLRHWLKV
Sequence of Platelet-activating factor receptor (P25105 whole entry): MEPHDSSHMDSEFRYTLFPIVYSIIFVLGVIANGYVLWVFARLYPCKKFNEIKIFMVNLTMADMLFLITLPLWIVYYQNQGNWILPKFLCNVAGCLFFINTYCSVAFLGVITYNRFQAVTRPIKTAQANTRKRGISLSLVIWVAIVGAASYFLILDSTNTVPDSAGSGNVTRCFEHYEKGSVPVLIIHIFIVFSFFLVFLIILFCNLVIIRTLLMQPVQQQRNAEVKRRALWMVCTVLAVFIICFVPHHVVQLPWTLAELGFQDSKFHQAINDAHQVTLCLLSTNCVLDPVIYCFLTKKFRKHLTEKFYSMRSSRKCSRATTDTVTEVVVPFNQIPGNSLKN
Sequence of Epidermal growth factor receptor (P00533 whole entry): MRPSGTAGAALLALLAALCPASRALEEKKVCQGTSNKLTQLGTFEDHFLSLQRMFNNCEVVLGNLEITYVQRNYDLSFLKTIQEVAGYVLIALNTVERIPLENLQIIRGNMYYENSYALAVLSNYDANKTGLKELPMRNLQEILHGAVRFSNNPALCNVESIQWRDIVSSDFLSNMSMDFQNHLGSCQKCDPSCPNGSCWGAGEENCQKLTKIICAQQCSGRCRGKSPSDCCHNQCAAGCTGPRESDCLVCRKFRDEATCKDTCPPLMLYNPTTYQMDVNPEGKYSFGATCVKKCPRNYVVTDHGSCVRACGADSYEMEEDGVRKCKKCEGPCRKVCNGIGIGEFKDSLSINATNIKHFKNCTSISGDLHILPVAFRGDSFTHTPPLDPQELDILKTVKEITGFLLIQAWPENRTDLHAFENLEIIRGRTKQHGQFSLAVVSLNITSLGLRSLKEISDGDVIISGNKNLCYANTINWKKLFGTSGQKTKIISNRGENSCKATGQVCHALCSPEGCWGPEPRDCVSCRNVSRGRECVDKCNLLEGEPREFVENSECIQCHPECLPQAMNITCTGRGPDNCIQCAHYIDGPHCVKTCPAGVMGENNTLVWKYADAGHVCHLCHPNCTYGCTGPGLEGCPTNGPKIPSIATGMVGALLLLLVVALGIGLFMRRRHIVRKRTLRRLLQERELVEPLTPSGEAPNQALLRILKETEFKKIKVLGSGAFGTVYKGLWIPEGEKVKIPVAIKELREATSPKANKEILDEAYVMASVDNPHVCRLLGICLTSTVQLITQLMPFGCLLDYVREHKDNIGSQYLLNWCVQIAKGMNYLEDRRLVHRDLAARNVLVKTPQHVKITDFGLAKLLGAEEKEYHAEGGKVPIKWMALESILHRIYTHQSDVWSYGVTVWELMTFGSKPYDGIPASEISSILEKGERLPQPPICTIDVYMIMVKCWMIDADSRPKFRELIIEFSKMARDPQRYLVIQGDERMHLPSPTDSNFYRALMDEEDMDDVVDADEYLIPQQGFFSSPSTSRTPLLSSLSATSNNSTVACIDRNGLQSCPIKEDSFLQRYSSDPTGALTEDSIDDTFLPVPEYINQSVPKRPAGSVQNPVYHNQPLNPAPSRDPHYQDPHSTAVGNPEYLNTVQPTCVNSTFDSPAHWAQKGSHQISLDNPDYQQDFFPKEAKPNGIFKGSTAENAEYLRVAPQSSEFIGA

COc1ccccc1C(=O)N1CCC(Cc2ccccc2)CC1
Not Active: IC50 [1] | Ki [1] | IC50 [2] | IC50 [3] | IC50 (Substance-K receptor) | IC50 [4] | IC50 [5] | Ki [5] | IC50 (Melanocortin receptor 3)

Cc1ccccc1C(=O)N1CCC(Cc2ccccc2)CC1
Not Active: IC50 [1] | Ki [1] | IC50 [2] | IC50 [3] | IC50 (Substance-K receptor) | IC50 [4] | IC50 [5] | Ki [5] | IC50 (Melanocortin receptor 3)

O=C1CC[C@H](N2C(=O)c3ccccc3C2=O)C(=O)N1
Not Active: IC50 [1] | Ki [1] | IC50 [2] | IC50 [3] | IC50 (Substance-K receptor) | IC50 [4] | IC50 [5] | Ki [5] | IC50 (Melanocortin receptor 3)

N=C(Nc1ccccc1)Nc1ccccc1
Not Active: IC50 [1] | Ki [1] | IC50 [2] | IC50 [3] | IC50 (Substance-K receptor) | IC50 [4] | IC50 [5] | Ki [5] | IC50 (Melanocortin receptor 3)

C[C@@H](O)[C@H](CO)NC(=O)[C@@H]1CSSC[C@H](NC(=O)[C@H](N)Cc2ccccc2)C(=O)N[C@@H](Cc2ccccc2)C(=O)N[C@H](Cc2c[nH]c3ccccc23)C(=O)N[C@@H](CCCCN)C(=O)N[C@@H]([C@@H](C)O)C(=O)N1 (H-[dF]CF[dW]KTC-{Threoninol(2S,3R)}; disulfide 2-7)
Not Active: IC50 [1] | Ki [1] | IC50 [2] | IC50 [3] | IC50 (Substance-K receptor) | IC50 [4] | IC50 [5] | Ki [5] | IC50 (Melanocortin receptor 3)

S=C=Nc1cccc2ccccc12 [1-NAPHTHYLISOTHIOCYANATE]
Not Active: IC50 [1] | Ki [1] | IC50 [2] | IC50 [3] | IC50 (Substance-K receptor) | IC50 [4] | IC50 [5] | Ki [5] | IC50 (Melanocortin receptor 3)

C[C@](O)(CS(=O)(=O)c1ccc(F)cc1)C(=O)Nc1ccc(C#N)c(C(F)(F)F)c1 [(R)-BICALUTAMIDE]
Not Active: IC50 [1] | Ki [1] | IC50 [2] | IC50 [3] | IC50 (Substance-K receptor) | IC50 [4] | IC50 [5] | Ki [5] | IC50 (Melanocortin receptor 3)

CCCC(=O)Nc1ccc(OCC(O)CNC(C)C)c(C(C)=O)c1 (configuration not stated) [ACEBUTOLOL]
Not Active: IC50 [1] | Ki [1] | IC50 [2] | IC50 [3] | IC50 (Substance-K receptor) | IC50 [4] | IC50 [5] | Ki [5] | IC50 (Melanocortin receptor 3)

CC(=O)Nc1ccc(O)cc1 [ACETAMINOPHEN]
Not Active: IC50 [1] | Ki [1] | IC50 [2] | IC50 [3] | IC50 (Substance-K receptor) | IC50 [4] | IC50 [5] | Ki [5] | IC50 (Melanocortin receptor 3)

COc1cc2c(c3oc(=O)c4c(c13)CCC4=O)[C@@H]1C=CO[C@@H]1O2 [AFLATOXIN]
Not Active: IC50 [1] | Ki [1] | IC50 [2] | Ki [2] | IC50 [3] | Ki [3] | IC50 (Substance-K receptor) | Ki (Substance-K receptor) | IC50 [4] | Ki [4] | IC50 [5] | Ki [5] | IC50 (Melanocortin receptor 3) | Ki (Melanocortin receptor 3)

N=C(N)NC(=O)c1nc(Cl)c(N)nc1N [AMILORIDE]
Not Active: IC50 [1] | Ki [1] | IC50 [2] | IC50 [3] | IC50 (Substance-K receptor) | IC50 [4] | IC50 [5] | Ki [5] | IC50 (Melanocortin receptor 3)

Cc1cc(=O)n(-c2ccccc2)n1C [ANTIPYRINE]
Not Active: IC50 [1] | Ki [1] | IC50 [2] | IC50 [3] | IC50 (Substance-K receptor) | IC50 [4] | IC50 [5] | Ki [5] | IC50 (Melanocortin receptor 3)

CN1C(=O)COc2c(C(=O)NC3CN4CCC3CC4)cc(Cl)cc21 (configuration not stated) [AZASETRON]
Not Active: IC50 [1] | Ki [1] | IC50 [2] | IC50 [3] | IC50 (Substance-K receptor) | IC50 [4] | IC50 [5] | Ki [5] | IC50 (Melanocortin receptor 3)

C[C@H]1C[C@H]2[C@@H]3CCC4=CC(=O)C=C[C@]4(C)[C@@]3(Cl)[C@@H](O)C[C@]2(C)[C@@]1(O)C(=O)CO [BECLOMETHASONE]
Not Active: IC50 [1] | Ki [1] | IC50 [2] | IC50 [3] | IC50 (Substance-K receptor) | IC50 [4] | IC50 [5] | Ki [5] | IC50 (Melanocortin receptor 3)

CCOC(=O)[C@H](CCc1ccccc1)N[C@H]1CCc2ccccc2N(CC(=O)O)C1=O [BENAZEPRIL]
Not Active: IC50 [1] | Ki [1] | IC50 [2] | IC50 [3] | IC50 (Substance-K receptor) | IC50 [4] | IC50 [5] | Ki [5] | IC50 (Melanocortin receptor 3)

Nc1c(CC(=O)O)cccc1C(=O)c1ccc(Br)cc1 [BROMFENAC]
Not Active: IC50 [1] | Ki [1] | IC50 [2] | IC50 [3] | IC50 (Substance-K receptor) | IC50 [4] | IC50 [5] | Ki [5] | IC50 (Melanocortin receptor 3)

CCCCN1CCCCC1C(=O)Nc1c(C)cccc1C.Cl (configuration not stated) [BUPIVACAINE HYDROCHLORIDE]
Not Active: IC50 [1] | Ki [1] | IC50 [2] | IC50 [3] | IC50 (Substance-K receptor) | IC50 [4] | IC50 [5] | Ki [5] | IC50 (Melanocortin receptor 3)

O=C1CC2(CCCC2)CC(=O)N1CCCCN1CCN(c2ncccn2)CC1 [BUSPIRONE]
Not Active: IC50 [1] | Ki [1] | IC50 [2] | IC50 [3] | IC50 (Substance-K receptor) | IC50 [4] | IC50 [5] | Ki [5] | IC50 (Melanocortin receptor 3)

C[C@@]12C(=O)OC(=O)[C@]1(C)[C@H]1CC[C@@H]2O1 [CANTHARIDIN]
Not Active: IC50 [1] | Ki [1] | IC50 [2] | IC50 [3] | IC50 (Substance-K receptor) | IC50 [4] | IC50 [5] | Ki [5] | IC50 (Melanocortin receptor 3)

O=NN(CCCl)C(=O)NCCCl [CARMUSTINE]
Not Active: IC50 [1] | Ki [1] | IC50 [2] | IC50 [3] | IC50 (Substance-K receptor) | IC50 [4] | IC50 [5] | Ki [5] | IC50 (Melanocortin receptor 3)

CC1=C(C(=O)O)N2C(=O)[C@@H](NC(=O)[C@H](N)c3ccccc3)[C@H]2SC1 [CEPHALEXIN ANHYDROUS]
Not Active: IC50 [1] | Ki [1] | IC50 [2] | IC50 [3] | IC50 (Substance-K receptor) | IC50 [4] | IC50 [5] | Ki [5] | IC50 (Melanocortin receptor 3)

O=C(N[C@H](CO)[C@H](O)c1ccc([N+](=O)[O-])cc1)C(Cl)Cl [CHLORAMPHENICOL]
Not Active: IC50 [1] | Ki [1] | IC50 [2] | IC50 [3] | IC50 (Substance-K receptor) | IC50 [4] | IC50 [5] | Ki [5] | IC50 (Melanocortin receptor 3)

ClC(Cl)Cl [CHLOROFORM]
Not Active: IC50 [1] | Ki [1] | IC50 [2] | IC50 [3] | IC50 (Substance-K receptor) | IC50 [4] | IC50 [5] | Ki [5] | IC50 (Melanocortin receptor 3)

C=C1CC[C@H](O)C/C1=C/C=C1\CCC[C@]2(C)[C@@H]([C@H](C)CCCC(C)C)CC[C@@H]12 [CHOLECALCIFEROL]
Not Active: IC50 [1] | Ki [1] | IC50 [2] | IC50 [3] | IC50 (Substance-K receptor) | IC50 [4] | IC50 [5] | Ki [5] | IC50 (Melanocortin receptor 3)

C[N+](C)(C)CCO.[Cl-] [CHOLINE CHLORIDE]
Not Active: IC50 [1] | Ki [1] | IC50 [2] | IC50 [3] | IC50 (Substance-K receptor) | IC50 [4] | IC50 [5] | Ki [5] | IC50 (Melanocortin receptor 3)

CCOC(=O)C(C)(C)Oc1ccc(Cl)cc1 [CLOFIBRATE]
Not Active: IC50 [1] | Ki [1] | IC50 [2] | IC50 [3] | IC50 (Substance-K receptor) | IC50 [4] | IC50 [5] | Ki [5] | IC50 (Melanocortin receptor 3)

C/C=C/C[C@@H](C)[C@@H](O)[C@H]1C(=O)N[C@@H](CC)C(=O)N(C)CC(=O)N(C)[C@@H](CC(C)C)C(=O)N[C@@H](C(C)C)C(=O)N(C)[C@@H](CC(C)C)C(=O)N[C@@H](C)C(=O)N[C@H](C)C(=O)N(C)[C@@H](CC(C)C)C(=O)N(C)[C@@H](CC(C)C)C(=O)N(C)[C@@H](C(C)C)C(=O)N1C [CYCLOSPORINE]
Not Active: IC50 [1] | Ki [1] | IC50 [2] | IC50 [3] | IC50 [4] | IC50 [5] | Ki [5] | IC50 (Melanocortin receptor 3)
